# Columns and labels:
# [1] = Solubility Test (shake flask at 37° C., HPLC); type: physicochemical; conditions: for solubility in The First Fluid: first fluid of disintegration test of Japanese Pharmacopoeia; for solubility in The First Fluid / solubility in water: shaken 125 strokes per minute, constant or maximum concentration over 0.5-20 hours
# Description: Each crystal polymorph (0.4 g), which was prepared by the above method, was taken in 50 mL Erlenmeyer flask respectively, and to the mixture was added 20 mL of the mediums as defined below. The flask was shaken at 125 strokes per minute at 37° C. After 0.5, 1, 2 and 20 hours from the start of shaking, 1.5 mL of the suspension was filtered through a membrane filter (pore size: 0.2 μm). The concentration of the filtrate for each crystal polymorph was determined by HPLC method to determine the solubility. The concentration where the concentration became constant by the temporal measurements of the concentration was determined to be the solubility of each polymorph, and the results are shown in Table 1. […] In the cases of crystalline form F and amorphous form, since these samples were dissolved completely in each medium within 0.5 hours after the start of the test, additional samples were added appropriately to the test flasks at the point of 0.5 hours after the start and the solubility tests were continued. The mediums: water or the first fluid of disintegration test of Japanese Pharmacopoeia (hereinafter referred to as The First Fluid).
# [2] = Chemical Stability Test (storage at 60° C. for 1 week, HPLC and appearance); type: physicochemical
# Description: Crystalline form F obtained in Example 1 was stored at 60° C. for 1 week to investigate the chemical stability. As the chemical stability, the residual percentage of ethyl (−)-2-[4-[2-[[(1S,2R)-2-hydroxy-2-(4-hydroxyphenyl)-1-methylethyl]amino]ethyl]-2,5-dimethylphenoxy]-acetate was determined by HPLC, and the change in appearance was also observed.
solubility in The First Fluid relative to crystalline forms A and B and amorphous form ([1]; The First Fluid),solubility in The First Fluid ([1]; hydrate),solubility in water ([1]; hydrate),appearance ([2]; after 1 week at 60° C.),residual percentage (chemical purity %) ([2]; after 1 week at 60° C.),appearance ([2]; at start),residual percentage (chemical purity %) ([2]; at start),changes in chemical purity and appearance ([2]; stored at 60° C. for 1 week),solubility in The First Fluid ([1]; hydrochloride),solubility in water ([1]; hydrochloride),Compound
about 5 times,11.8 mg/mL,24.3 mg/mL,white,98.1%,white,98.1%,no changes,,,"CCOC(=O)COc1cc(C)c(CCN[C@@H](C)[C@H](O)c2ccc(O)cc2)cc1C.Cl [crystal form F, ethyl (−)-2-[4-[2-[[(1S,2R)-2-hydroxy-2-(4-hydroxyphenyl)-1-methylethyl]amino]ethyl]-2,5-dimethylphenoxy]acetate hydrochloride ¼ hydrate]"
,,,,,,,,2.6 mg/mL,17.8 mg/mL,"CCOC(=O)COc1cc(C)c(CCN[C@@H](C)[C@H](O)c2ccc(O)cc2)cc1C.Cl [amorphous form, ethyl (−)-2-[4-[2-[[(1S,2R)-2-hydroxy-2-(4-hydroxyphenyl)-1-methylethyl]amino]ethyl]-2,5-dimethylphenoxy]acetate hydrochloride]"
,,,,,,,,2.9 mg/mL,12.5 mg/mL,"CCOC(=O)COc1cc(C)c(CCN[C@@H](C)[C@H](O)c2ccc(O)cc2)cc1C.Cl [crystal form B, ethyl (−)-2-[4-[2-[[(1S,2R)-2-hydroxy-2-(4-hydroxyphenyl)-1-methylethyl]amino]-ethyl]-2,5-dimethylphenoxy]acetate hydrochloride]"
,,,,,,,,2.4 mg/mL,10.7 mg/mL,"CCOC(=O)COc1cc(C)c(CCN[C@@H](C)[C@H](O)c2ccc(O)cc2)cc1C.Cl [crystal form A, ethyl (−)-2-[4-[2-[[(1S,2R)-2-hydroxy-2-(4-hydroxyphenyl)-1-methylethyl]amino]-ethyl]-2,5-dimethylphenoxy]acetate hydrochloride]"
